Results published in patent publication US7317038B2, “Nerve regeneration promoters containing semaphorin inhibitor as the active ingredient” (Dainippon Sumitomo Pharma Co., Ltd., priority 2000, dated 2008).
“Also recorded” adds a separate entry of the source.

Biological target: T1, binding of Sema3A and Neuropilin-1 (Mus musculus, UniProt O08665)
T1 construct: alkaline phosphatase was fused from the 758th amino acid to the C terminal side in said Sema3A; expressed in transfected cells; host or cells: COS7
T1 sequence (O08665 21-758 limits assumed): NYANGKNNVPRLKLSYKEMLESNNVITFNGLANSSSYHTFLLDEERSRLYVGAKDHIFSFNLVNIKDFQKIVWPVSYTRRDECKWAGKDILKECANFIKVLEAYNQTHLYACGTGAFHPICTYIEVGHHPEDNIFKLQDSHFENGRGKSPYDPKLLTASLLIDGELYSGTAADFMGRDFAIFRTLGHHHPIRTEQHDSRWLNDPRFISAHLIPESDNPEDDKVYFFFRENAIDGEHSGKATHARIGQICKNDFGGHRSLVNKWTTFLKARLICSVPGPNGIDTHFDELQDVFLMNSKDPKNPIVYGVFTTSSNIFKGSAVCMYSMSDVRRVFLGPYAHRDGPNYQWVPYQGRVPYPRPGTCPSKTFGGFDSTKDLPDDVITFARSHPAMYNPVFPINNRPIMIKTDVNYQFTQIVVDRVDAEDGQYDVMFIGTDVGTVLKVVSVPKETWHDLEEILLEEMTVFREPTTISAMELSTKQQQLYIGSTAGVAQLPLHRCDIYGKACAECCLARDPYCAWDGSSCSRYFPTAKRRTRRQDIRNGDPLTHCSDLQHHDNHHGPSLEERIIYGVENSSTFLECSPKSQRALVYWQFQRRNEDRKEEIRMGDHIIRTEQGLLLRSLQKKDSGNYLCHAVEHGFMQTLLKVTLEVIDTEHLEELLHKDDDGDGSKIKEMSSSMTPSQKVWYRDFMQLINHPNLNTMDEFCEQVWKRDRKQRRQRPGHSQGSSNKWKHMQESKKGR
Assay: Sema3A-receptor-binding experiment (Sema3A-AP to Neuropilin-1 expressing COS7 cells)
Conditions: SPF-3059-1 0 to 10 μg/ml
Text: Whether SPF-3059-1 inhibits the binding of Sema3A and Neuropilin-1, which is a component constituting Sema3A receptor complex, was examined in the receptor-binding experiment. Neuropilin-1 and plexin Al are currently known as constituting components of Sema3A receptors. However, mainly Neuropilin-1 is known to contribute to Sema3A binding. Sema3A fused with alkaline phosphatase (human-derived: heat-resistance) (Sema3A-AP) was used as a ligand in the receptor-binding experiment and the amount bound to the receptor was detected with the alkaline phosphatase activity as an index. Mouse-derived Sema3A was used. A recombinant gene was generated in which alkaline phosphatase was fused from the 758th amino acid to the C terminal side in said Sema3A. This recombinant gene was then introduced into a COS7 cell where it was expressed and secreted and Sema3A-AP was prepared.
The receptor-binding experiment was performed as described below. The Neuropilin-1 expressing plasmid (pUCSRα-Neuropilin-1) was introduced into COS7 cells and cultivated for 24 hours. These cells express Neuropilin-1 on the cell surface. […] The alkaline phosphatase activity derived from Sema3A-AP in the cell extract (=binding amount of Sema3A-AP) was determined. […] The solution was then measured for its absorbance at 405 nm (p-nitrophenol: generated from p-nitirophenyl phosphate with alkaline phosphatase).

## CC(=O)c1c(C)c(C(=O)C2COc3cc(O)c(O)c(C(=O)O)c3C2=O)cc2c(=O)c3c(C(=O)O)c(O)c(O)cc3oc12 (stereo not shown) [SPF-3059-1]
  binding of Sema3A-AP to Neuropilin-1 expressing COS7 cells: decrease in a concentration-dependent manner; also recorded: inhibits the binding of Sema3A-AP to Neuropilin-1 in a concentration-dependent manner
